Laboratory results reported in patent US20250084074A1, “SUBSTITUTED HETEROCYCLES AS HSET INHIBITORS” (MERCK PATENT GMBH, priority 2022, published 2025).
Where a name gives a salt, the structure may show the parent alone.

Biological target: HSET full length protein (Homo sapiens (Human), UniProt Q9BW19)
Test: HSET ADP-Glo Assay S - 3 μM ATP
Format: biochemical
Conditions: 5 nM HSET, 70 μg/mL microtubule, 80 min at rt, read-out: COMBINED HSET ADP GLO IC50
In short: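 ADP-Glo luminescence read-out: ATPase reaction at 3 μM ATP, 80 min at room temperature, after a 10 min compound preincubation. Enzyme was full-length human HSET at 5 nM, stimulated by 70 μg/mL paclitaxel-stabilised bovine microtubules in HEPES pH 6.8 buffer with MgCl2, EGTA, Triton X-100 and DTT.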

Sequence of HSET full length protein (Q9BW19 whole entry): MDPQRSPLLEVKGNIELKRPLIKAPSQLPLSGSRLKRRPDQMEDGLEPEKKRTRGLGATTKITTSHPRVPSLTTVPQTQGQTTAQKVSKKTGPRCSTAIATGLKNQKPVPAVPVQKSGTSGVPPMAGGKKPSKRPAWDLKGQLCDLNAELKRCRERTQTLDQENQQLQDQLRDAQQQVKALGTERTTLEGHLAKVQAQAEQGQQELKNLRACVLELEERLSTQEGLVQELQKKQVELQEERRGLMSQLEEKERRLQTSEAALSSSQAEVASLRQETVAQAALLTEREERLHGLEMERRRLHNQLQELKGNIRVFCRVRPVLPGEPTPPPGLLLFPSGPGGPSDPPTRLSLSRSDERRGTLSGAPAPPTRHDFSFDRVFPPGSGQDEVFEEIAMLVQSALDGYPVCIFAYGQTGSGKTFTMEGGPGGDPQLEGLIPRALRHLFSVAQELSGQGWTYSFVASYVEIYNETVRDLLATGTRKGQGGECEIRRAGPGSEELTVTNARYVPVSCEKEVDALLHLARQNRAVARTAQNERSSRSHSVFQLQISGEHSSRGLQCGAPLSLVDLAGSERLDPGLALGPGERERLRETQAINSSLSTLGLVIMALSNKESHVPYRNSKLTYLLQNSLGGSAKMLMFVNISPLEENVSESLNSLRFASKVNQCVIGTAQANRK

Row | Structure (SMILES) | IC50
1 | Cc1nc(-c2cccc(C(=O)NCCC(=O)Nc3nc(C)c(C(=O)OC4CCCCC4)s3)c2)no1 [Example 124, Cyclohexyl-4-methyl-2-(3-(3-(5-methyl-1,2,4-oxadiazol-3-yl)benzamido)propanamido)thiazole-5-carboxylate] | 14 nM
2 | COc1ccc(CCCOC(=O)c2sc(NC(=O)CCNC(=O)c3cccc(-c4noc(C)n4)c3)nc2C)cc1 [Example 126, 3-(4-methoxyphenyl)propyl 4-methyl-2-(3-(3-(5-methyl-1,2,4-oxadiazol-3-yl)benzamido)propanamido)thiazole-5-carboxylate] | 39 nM
3 | COCCOCCCCOC(=O)c1sc(NC(=O)CCNC(=O)c2cccc(-c3noc(C)n3)c2)nc1C [Example 127, 4-(2-methoxyethoxy)butyl 4-methyl-2-(3-(3-(5-methyl-1,2,4-oxadiazol-3-yl)benzamido)propanamido)thiazole-5-carboxylate] | 55 nM
4 | COC(=O)c1cc(NC(=O)CCNC(=O)c2cccc(-c3noc(C)n3)c2)nn1C [Example 128, Methyl-2-methyl-5-[3-[[3-(5-methyl-1,2,4-oxadiazol-3-yl)benzoyl]amino]propanoylamino]pyrazole-3-carboxylate] | 14100 nM
5 | CCCC(C)c1sc(NC(=O)CCNC(=O)c2cccc(-c3noc(C)n3)c2)nc1C (stereo not shown) [Example 129, 3-(5-methyl-1,2,4-oxadiazol-3-yl)-N-(3-((4-methyl-5-(pentan-2-yl)thiazol-2-yl)amino)-3-oxopropyl)benzamide] | 1130 nM
6 | CCCOC(=O)c1cc(NC(=O)CCNc2nccc3ccc(-c4noc(C)n4)cc23)nn1C [Example 131, Propyl-1-methyl-3-(3-((7-(5-methyl-1,2,4-oxadiazol-3-yl)isoquinolin-1-yl)amino)propanamido)-1 H-pyrazole-5-carboxylate formate] | 16 nM
7 | CCOC(=O)c1cc(NC(=O)CCNc2nccc3ccc(-c4noc(C)n4)cc23)n[nH]1 [Example 135, Ethyl-3-(3-((7-(5-methyl-1,2,4-oxadiazol-3-yl)isoquinolin-1-yl)amino)propanamido)-1 H-pyrazole-5-carboxylate] | 428 nM
8 | Cc1nc(-c2cc(C(=O)NCCC(=O)Nc3nc(C)c(C(=O)OCCCCCCO)s3)cc(C(F)(F)F)c2)no1 [Example 136, 6-Hydroxyhexyl 4-methyl-2-(3-(3-(5-methyl-1,2,4-oxadiazol-3-yl)-5-(trifluoromethyl)benzamido)propanamido)thiazole-5-carboxylate] | 737 nM
9 | CCCCc1sc(C(=O)NCCNc2nccc3ccc(-c4noc(C)n4)cc23)nc1C [Example 137, 5-Butyl-4-methyl-N-(2-((7-(5-methyl-1,2,4-oxadiazol-3-yl)isoquinolin-1-yl)amino)ethyl)thiazole-2-carboxamide formate] | 778 nM
10 | Cc1nc(-c2ccc3ccnc(NCCC(=O)Nc4cc(C(=O)OC5CCCC5)n(C)n4)c3c2)no1 [Example 138, Cyclopentyl-1-methyl-3-(3-((7-(5-methyl-1,2,4-oxadiazol-3-yl)isoquinolin-1-yl)amino)propanamido)-1 H-pyrazole-5-carboxylate] | 11 nM
11 | CCOC(=O)c1sc(C(=O)NCCNC(=O)c2cccc(-c3noc(CC)n3)c2)nc1C [Example 140, Ethyl-2-((2-(3-(5-ethyl-1,2,4-oxadiazol-3-yl)benzamido)ethyl)carbamoyl)-4-methylthiazole-5-carboxylate] | 5040 nM
12 | CCCOC(=O)c1sc(NC(=O)CC2(NC(=O)c3cc(Cl)cc(-c4noc(C)n4)c3)CCN(C)CC2)nc1C [Example 144, Propyl-2-(2-(4-(3-chloro-5-(5-methyl-1,2,4-oxadiazol-3-yl)benzamido)-1-methylpiperidin-4-yl)acetamido)-4-methylthiazole-5-carboxylate] | 9200 nM
13 | CNCCC[C@@H](CC(=O)Nc1nc(C)c(C(=O)OC(C)(C)C)s1)NC(=O)c1cccc(-c2noc(C)n2)c1 [Example 154, Tert-butyl 4-methyl-2-[[(3S)-6-(methylamino)-3-[[3-(5-methyl-1,2,4-oxadiazol-3-yl)benzoyl]amino]hexanoyl]amino]thiazole-5-carboxylate] | 6 nM
14 | CNCCC[C@@H](CC(=O)Nc1nc(C)c(C(=O)OC2CCCC2)s1)NC(=O)c1cccc(-c2noc(C)n2)c1 [Example 155, Cyclopentyl (S)-4-methyl-2-(3-(3-(5-methyl-1,2,4-oxadiazol-3-yl)benzamido)-6-(methylamino)hexanamido)thiazole-5-carboxylate] | 11 nM

Second part, the molecule after the results:

Row | IC50 | Structure (SMILES)
15 | 5590 nM | Cc1nc(-c2cccc(C(=O)NCCC(=O)Nc3nc(C)c(C(=O)OCCCCN)s3)c2)no1 [Example 125, 4-aminobutyl 4-methyl-2-(3-(3-(5-methyl-1,2,4-oxadiazol-3-yl)benzamido)propanamido)thiazole-5-carboxylate hydrochloride]
16 | 15400 nM | CC(=O)NCCCCOC(=O)c1sc(NC(=O)CCNC(=O)c2cccc(-c3noc(C)n3)c2)nc1C [Example 130, 4-Acetamidobutyl 4-methyl-2-(3-(3-(5-methyl-1,2,4-oxadiazol-3-yl)benzamido)propanamido)thiazole-5-carboxylate]
17 | 10 nM | Cc1nc(-c2cccc(C(=O)NCCC(=O)Nc3nc(C)c(C(=O)OC(C)(C)C)s3)c2)no1 [Example 132, Tert-butyl-4-methyl-2-(3-(3-(5-methyl-1,2,4-oxadiazol-3-yl)benzamido)propanamido)thiazole-5-carboxylate]
18 | 93 nM | CCOC(=O)c1sc(NC(=O)CCNC(=O)c2cccc(-c3noc(C)n3)c2)cc1C [Example 133, Ethyl-3-methyl-5-[3-[[3-(5-methyl-1,2,4-oxadiazol-3-yl)benzoyl]amino]propanoylamino]thiophene-2-carboxylate]
19 | 1310 nM | CCCN(C(=O)CCNC(=O)c1cccc(-c2noc(C)n2)c1)c1nc(C)c(C(=O)OCC)s1 [Example 134, Ethyl-4-methyl-2-(3-(3-(5-methyl-1,2,4-oxadiazol-3-yl)benzamido)-N-propylpropanamido)thiazole-5-carboxylate]
20 | 405 nM | CCOC(=O)c1sc(C(=O)NCCNC(=O)c2cccc(-c3noc(C)n3)c2)nc1C [Example 141, Ethyl-4-methyl-2-((2-(3-(5-methyl-1,2,4-oxadiazol-3-yl)benzamido)ethyl)carbamoyl)thiazole-5-carboxylate]
21 | 288 nM | CCOC(=O)c1sc(NC(=O)C[C@@H](C)NC(=O)c2cccc(-c3noc(C)n3)c2)nc1C [Example 142, Ethyl-(R)-4-methyl-2-(3-(3-(5-methyl-1,2,4-oxadiazol-3-yl)benzamido)butanamido)thiazole-5-carboxylate]
22 | 61 nM | CCOC(=O)c1sc(NC(=O)C[C@H](C)NC(=O)c2cccc(-c3noc(C)n3)c2)nc1C [Example 143, Ethyl-(S)-4-methyl-2-(3-(3-(5-methyl-1,2,4-oxadiazol-3-yl)benzamido)butanamido)thiazole-5-carboxylate]
23 | 5480 nM | CCOC(=O)c1sc(NC(=O)C(C)CNC(=O)c2cccc(-c3noc(C)n3)c2)nc1C (stereo not shown) [Example 145, Ethyl-4-methyl-2-(2-methyl-3-(3-(5-methyl-1,2,4-oxadiazol-3-yl)benzamido)propanamido)thiazole-5-carboxylate]
24 | 260 nM | CCOC(=O)c1sc(NC(=O)CC(NC(=O)c2cccc(-c3noc(C)n3)c2)C2CCNCC2)nc1C (stereo not shown) [Example 146, 4-(3-((5-(ethoxycarbonyl)-4-methylthiazol-2-yl)amino)-1-(3-(5-methyl-1,2,4-oxadiazol-3-yl)benzamido)-3-oxopropyl)piperidin-1-ium formate]
25 | 291 nM | CCOC(=O)c1sc(NC(=O)CC(NC(=O)c2cccc(-c3noc(C)n3)c2)C2CCN(C)CC2)nc1C (stereo not shown) [Example 147, 4-(3-((5-(ethoxycarbonyl)-4-methylthiazol-2-yl)amino)-1-(3-(5-methyl-1,2,4-oxadiazol-3-yl)benzamido)-3-oxopropyl)-1-methylpiperidin-1-ium formate]
26 | 133 nM | CCOC(=O)c1sc(NC(=O)C[C@H](CN)NC(=O)c2cccc(-c3noc(C)n3)c2)nc1C [Example 148, Ethyl-2-[[(3R)-4-amino-3-[[3-(5-methyl-1,2,4-oxadiazol-3-yl)benzoyl]amino]butanoyl]amino]-4-methyl-thiazole-5-carboxylate]
27 | 2800 nM | CCOC(=O)c1sc(NC(=O)[C@H]2CNC[C@@H]2NC(=O)c2cccc(-c3noc(C)n3)c2)nc1C [Example 149, Ethyl-4-methyl-2-[[(3S,4R)-4-[[3-(5-methyl-1,2,4-oxadiazol-3-yl)benzoyl]amino]pyrrolidine-3-carbonyl]amino]thiazole-5-carboxylate; formic acid]
28 | 57 nM | CCOC(=O)c1sc(NC(=O)C[C@H](CCCN)NC(=O)c2cccc(-c3noc(C)n3)c2)nc1C [Example 150, ethyl (S)-2-(6-amino-3-(3-(5-methyl-1,2,4-oxadiazol-3-yl)benzamido)hexanamido)-4-methylthiazole-5-carboxylate]
29 | 13 nM | CCCOC(=O)c1sc(NC(=O)C[C@H](CCCN)NC(=O)c2cccc(-c3noc(C)n3)c2)nc1C [Example 151, Popyl-(S)-2-(6-amino-3-(3-(5-methyl-1,2,4-oxadiazol-3-yl)benzamido)hexanamido)-4-methylthiazole-5-carboxylate]
30 | 19 nM | CCCOC(=O)c1sc(NC(=O)C[C@H](CCCNC)NC(=O)c2cccc(-c3noc(C)n3)c2)nc1C [Example 152, Propyl 4-methyl-2-[[(3S)-6-(methylamino)-3-[[3-(5-methyl-1,2,4-oxadiazol-3-yl)benzoyl]amino]hexanoyl]amino]thiazole-5-carboxylate]
31 | 285 nM | CCCOC(=O)c1sc(NC(=O)C[C@@H](CCCNC)NC(=O)c2cccc(-c3noc(C)n3)c2)nc1C [Example 153, Propyl-(R)-4-methyl-2-(3-(3-(5-methyl-1,2,4-oxadiazol-3-yl)benzamido)-6-(methylamino)hexanamido)thiazole-5-carboxylate]
